One assay concerns the target T1, HIV protease (Human immunodeficiency virus type 1 group M subtype B, UniProt P04585).
T1 construct: purified protease
Kind of assay: HIV Protease Assay. It counts as biochemical. The settings on record: 10 μM inhibitor, 4% DMSO, 450 μM substrate, pH 5.5, 30 minutes at 37° C. The procedure: An HIV protease standard assay was performed in a 60 μl reaction medium containing 50 mM sodium acetate, pH 5.5, 100 μg/ml bovine serum, 450 μM substrate (H2 N-Val-Ser-Gin-Asn-( β-naphthyl-alanine)-Pro-Val-Ile-OH), and purified protease. The reaction medium was incubated for 30 minutes at 37° C., quenched by the addition of 140 μl 5% H3 PO4, then analyzed by reverse phase HPLC using UV220 detection. In a typical control assay, 7% of the substrate was hydrolyzed. The retrocarbamate protease inhibitors of the present invention, listed in the following Table 1, were then employed in the assay, for which purpose they were prepared as a […] solution in DMSO then diluted to 30 μM with 50 mM sodium acetate/bovine serum albumen. This working stock was then diluted three-fold into the protease reaction medium, for a final concentration of 10 μM inhibitor and 4% DMSO.

The next assay concerns HIV (CEM Cells). Kind of assay: Cell Culture Anti-HIV Activity (formazan cell viability of HIV-infected CEM-SS cells). The settings on record: Human immunodeficiency virus 1, CCRF-CEM, 144 h; CEM-SS cells infected with RF strain of HIV, multiplicity of infection 0.04, 6 days at 37° C.; concentration raising formazan production to 50% of uninfected cells. It counts as cell-based. The procedure: The antiviral activity of the retrocarbamate protease inhibitors of the present invention was evaluated by a microculture method which determines the increase in cell viability of an infected culture when a drug is added. The assay depends on the metabolic reduction of tetrazolium reagent by viable cells to yield a soluble colored formazan product. The assay was performed as follows: suspensions of CEM--SS cells (5000/well) were infected with the RF strain of HIV at a multiplicity of infection at 0.04 in a 96-well plate. The compounds of the present invention listed in the following Table 1, serially diluted in half-log fashion, were added to the infected and uninfected control cells. Untreated (infected and uninfected) cells were included as controls. Following incubation for 6 days at 37° C., viable cells in each well were quantitated by the visible light absorbance at 450 nm. The IC50 was calculated as the concentration of drug that increased the formazan production in virally infected cells to 50% of that produced by uninfected cells in the absence of drug.

Structures are written as SMILES.

What is called inhibition is how much of the control response was suppressed. The low end stands for a response near the control, the high end for a response far below the control. In general, IC50 refers to the point on the concentration scale where inhibition reaches its midpoint. Read a low IC50 as greater potency.

In turn, `CC(C)(C)NC(=O)O[C@@H](Cc1ccccc1)[C@H](O)CNC[C@@H](O)[C@H](Cc1ccccc1)NC(=O)[C@](C)(O)C(C)(C)C` [Example 3, [1S-[1R*, 2S*[2S*, 3R* (S*)]]]-(1,1-Dimethylethyl)carbamic acid, 3-[[3-[(2-hydroxy-2,3,3-trimethyl-1-oxobutyl)amino]-2-hydroxy-4-phenylbutyl]amino]-2-hydroxy-1-(phenylmethyl)propyl ester] returned an inhibition at 10 µM on HIV protease of 98%. The same compound returned an IC50 in the assay with HIV (CEM Cells) of 100 nM.
In turn, `CC(C)(C)NC(=O)O[C@@H](Cc1ccccc1)[C@H](O)CNC[C@@H](O)[C@H](Cc1ccccc1)NC(=O)OC(C)(C)C` [Example 1, [1S-[1R*,2S*(2S*,3R*)]]-[3-[[3-[[[(1,1-Dimethylethyl)amino]carbonyl]oxy]-2-hydroxy-4-phenylbutyl]amino]-2-hydroxy-1-(phenylmethyl)-propyl]carbamic acid, 1,1-dimethyl ester] had an inhibition at 10 µM against HIV protease of 98%. 460 nM corresponded to half-maximal inhibition in the assay on HIV (CEM Cells) (IC50).
On the same counts, the results for `CC(C)(C)NC(=O)O[C@@H](Cc1ccccc1)[C@H](O)CNC[C@@H](O)[C@H](Cc1ccc(OCC(=O)N2CCOCC2)cc1)NC(=O)OC(C)(C)C` [Example 2, [1S-[1R*,2S* (2S*,3R*)]]-[3-[[3-[[[(1,1-Dimethylethyl)amino]carbonyl]oxy]-2-hydroxy-4-phenylbutyl]amino]-2-hydroxy-1-[[4-[2-(morpholinyl)-2-oxoethoxy]phenyl]methyl]propyl]carbamic acid, 1,1-dimethylethyl ester] are 90% and 200 nM.

Values taken from US5492910A, “Retrocarbamate protease inhibitors” (Bristol-Myers Squibb Co., priority 1994, dated 1996).
